Key:
[1] = Protein binding in plasma (unknown origin); format: ADME, cell-free; settings: read-out: PPB (converted)
[2] = Half life in human at 600 mg, iv administered every 12 hrs as 1 hr infusion; format: ADME, organism-based; settings: in vivo
[3] = Chemical stability of compound assessed as compound degradation at 37 degreeC measured for 24 hrs; format: physicochemical; settings: read-out: Drug degradation
[4] = Elimination half life in human at 1 g, iv infusion for 30 mins; format: ADME, organism-based; settings: in vivo, read-out: beta t1/2 (converted)
[5] = Bioavailability in human at 500 mg, IM; format: ADME, organism-based; settings: in vivo
[6] = Drug excretion in human urine assessed as unaltered drug; format: ADME; settings: read-out: Drug excretion
[7] = Oral bioavailability in human; format: ADME, organism-based; settings: in vivo
[8] = Half life of compound in human; format: ADME
[9] = Half life of compound; format: physicochemical

CC1(C)S[C@@H]2[C@H](NC(=O)[C@H](N)c3ccc(O)cc3)C(=O)N2[C@H]1C(=O)O [AMOXICILLIN]
fraction unbound [1]: 0.7

CCO/N=C(\C(=O)N[C@@H]1C(=O)N2C(C(=O)O)=C(Sc3nc(-c4cc[n+](C)cc4)cs3)CS[C@H]12)c1nsc(NP(=O)(O)O)n1.[Na+]
half-life [2]: 1.6 h

C[C@@H](O)[C@H]1C(=O)N2C(C(=O)O)=C(S[C@@H]3CN[C@H](C(=O)N(C)C)C3)[C@H](C)[C@H]12 [MEROPENEM]
degraded at 24 h [3]: 60%
half-life [4]: 1 h

C[C@H]1[C@H](NC(=O)/C(=N\OC(C)(C)C(=O)O)c2csc(N)n2)C(=O)N1S(=O)(=O)O [AZTREONAM]
bioavailability [5]: 100%
dose excreted [6]: 68%
bioavailability [7]: 1%

CC1(C)S[C@@H]2[C@H](NC(=O)C(C(=O)O)c3ccccc3)C(=O)N2[C@H]1C(=O)O (some centres not stated) [CARBENICILLIN]
half-life [8]: 1 h

Cc1onc(-c2ccccc2)c1C(=O)N[C@@H]1C(=O)N2[C@@H]1SC(C)(C)[C@@H]2C(=O)O [OXACILLIN]
fraction unbound [1]: 0.1

Cc1onc(-c2ccccc2Cl)c1C(=O)N[C@@H]1C(=O)N2[C@@H]1SC(C)(C)[C@@H]2C(=O)O [CLOXACILLIN]
fraction unbound [1]: 0.1

CC1(C)S[C@@H]2[C@H](NC(=O)Cc3ccccc3)C(=O)N2[C@H]1C(=O)O [PENICILLIN G]
half-life [9]: 0.333 h
fraction unbound [1]: 0.4
